Assay results: patent US20060281736A1, “Product comprising at least one phosphatase cdc25 inhibitor combined with at least one other anticancer agent” (priority 2003, published 2006)
pIC50: −log10 of the molar value. Values belong to the compound of their own block, whether it stands above or below them.

What was measured:
[1] = Stability in the form of a powder; type: physicochemical; settings: compound and its salts
[2] = In vivo toxicity
[3] = test system: HT-29 cell line (human colon cancer cells); test: Test of cell proliferation of the HT-29 cells (WST1), products individually or in combination; type: cell-based; settings: Combination 13: Compound B13 (10^−9 M) individually; 120 hours
Method: A) Test of Cell Proliferation of the HT-29 Cells
The protocol for the test used to obtain the results shown is described below:
The HT-29 cell line (human colon cancer cells) were acquired from the American Tissue Culture Collection (Rockville, Md., USA).
The HT-29 cells (2000 cells/well) are cultured in 96-well plates. On day 0, these cells are seeded in 90 μl of Dulbecco's modified Eagle medium (Gibco-Brl, Cergy-Pontoise, France) completed with 10% foetal calf serum inactived by heating (Gibco-Brl, Cergy-Pontoise, France), 50000 units/l of penicillin and 50 mg/l streptomycin (Gibco-Brl, Cergy-Pontoise, France), and 2 mM of glutamine (Gibco-Brl, Cergy-Pontoise, France).
The cells were treated simultaneously with concentrations of two products individually or in combination on Day 1 and for 120 hours.
At the end of the of this period (D6), quantification of cell proliferation is evaluated by a colorimetric test based on the cleavage of the tetrazolium salt WST1 by mitochondrial dehydrogenases in living cells leading to the formation of formazan (Boehringer Mannheim, Meylan, France). These tests are carried out at least in duplicate with 4 determinations for each individual product and for each combination tested. This allows determination of the number of living cells at the end of each treatment.

[4] = test system: Mia-PaCa2 (human pancreas cancer cells); test: Antiproliferative activity on Mia-Paca2 cells (WST1); type: cell-based; settings: MIA PaCa-2, 96 hours treatment, read-out: IC50 on the cell proliferation of Mia-Paca2 lines
Method: (§1) ii) Characterization of the Antiproliferative Activity:
(§2) By way of example, the effect of a treatment on two human cell lines Mia-Paca2 and DU145 with the compounds of the examples described previously will be studied. The cell lines DU145 (human prostate cancer cells) and Mia-PaCa2 (human pancreas cancer cells) were acquired from the American Tissue Culture Collection (Rockville, Md., USA). The cells placed in 80 μl of Dulbecco's Modified Eagle's medium (Gibco-Brl, Cergy-Pontoise, France) completed with 10% foetal calf serum inactivated by heating (Gibco-Brl, Cergy-Pontoise, France), 50,000 units/l of penicillin and 50 mg/l of streptomycin (Gibco-Brl, Cergy-Pontoise, France), and 2 mM of glutamine (Gibco-Brl, Cergy-Pontoise, France) were seeded on a 96-well plate on day 0. The cells were treated on day 1 for 96 hours with increasing concentrations of each of the compounds to be tested up to 10 μM. At the end of this period, quantification of cell proliferation is evaluated by a colorimetric test based on the cleavage of the tetrazolium salt WST1 by the mitochondrial dehydrogenases in viable cells leading to the formation of formazan (Boehringer Mannheim, Meylan, France). These tests are carried out in duplicate with 8 determinations per concentration tested. For each compound to be tested, the values included in the linear part of the sigmoid were retained for a linear regression analysis and used to estimate the inhibitory concentration IC50. The products are solubilized in dimethylsulphoxide (DMSO) at 10^−2 M and finally used in culture with 0.1% DMSO.

[5] = test system: DU145 (human prostate cancer cells); test: Antiproliferative activity on DU145 cells (WST1); type: cell-based; settings: DU-145, 96 hours treatment, read-out: IC50 on the cell proliferation of DU-145 lines
Method: as §1
as §2, with “For each compound to be tested, the values included in the linear part of the sigmoid were retained for a linear regression analysis and used to estimate the inhibitory concentration IC50. The products are solubilized in dimethylsulphoxide (DMSO) at 10^−2 M and finally used in culture with 0.1% DMSO.” left out

- stability in the form of a powder [1]: particularly stable
SMILES: N[C@@H](CSSC[C@H](N)C(=O)N1CCn2cc(-c3ccccc3)nc2[C@@H]1CC1CCCCC1)C(=O)N1CCn2cc(-c3ccccc3)nc2[C@@H]1CC1CCCCC1 [(1R)-1-[({(2R)-2-amino-3-[(8S)-8-(cyclohexylmethyl)-2-phenyl-5,6-dihydroimidazo[1,2-a]pyrazin-7(8H)-yl]-3-oxopropyl}dithio)methyl]-2-[(8)-8-(cyclohexylmethyl)-2-phenyl-5,6-dihydroimidazo[1,2-a]pyrazin-7(8H)-yl]-2-oxoethylamine]
- in vivo toxicity data [2]: excellent

SMILES: CC[C@@]1(O)CC(=O)OCc2c1cc1n(c2=O)Cc2c-1nc1cc(Cl)c(C)cc1c2CN1CCC(C)CC1.Cl [Compound B13, (+)-9-chloro-5-ethyl-5-hydroxy-10-methyl-12-(4-methylpiperidinomethyl)-4,5,13,15-tetrahydro-1H,3H-oxepino[3′,4′:6,7]indolizino[1,2-c]quinoline-3,15-dione hydrochloride]
- % of surviving cells [3]: 91%

- pIC50 [4]: ≥ 5.00
- pIC50 [5]: ≥ 5.00
SMILES: CCCNC1=CC(=O)c2sc(C)nc2C1=O [Example 11, 2-methyl-5-(propylamino)-1,3-benzothiazole-4,7-dione]

- pIC50 [4]: ≥ 5.00
- melting point: 135 °C
SMILES: CCc1nc2c(o1)C(=O)C(C)=C(NCCN(C)C)C2=O [Example 55, 5-{[2-(dimethylamino)ethyl]amino}-2-ethyl-6-methyl-1,3-benzoxazole-4,7-dione]
